The subject of data set [1] is Staphylococcus aureus. Nature of the data set: Antimicrobial activity against Staphylococcus aureus Smith diffuse infected in Wistar rat ureteral stent infection model containing 1 ug/ml drug-coated stent assessed as bacterial count on ureteral stent after 48 hrs. The format is functional.
Data set [2] relates to Staphylococcus aureus. Nature of the data set: Antimicrobial activity against Staphylococcus aureus Smith diffuse infected in Wistar rat ureteral stent infection model containing 1 ug/ml drug-coated stent assessed as bacterial count in urine after 48 hrs. The class given is functional.
Data set [3] has as its system Staphylococcus aureus. The data set is described as follows: Potentiation of teicoplanin-induced antimicrobial activity against Staphylococcus aureus Smith diffuse infected in Wistar rat ureteral stent infection model containing drug-coated stent assessed as bacterial count on stent after 48 hrs. The class given is functional.
Data set [4] concerns Staphylococcus aureus. Nature of the data set: Potentiation of teicoplanin-induced antimicrobial activity against Staphylococcus aureus Smith diffuse infected in Wistar rat ureteral stent infection model containing drug-coated stent assessed as bacterial count in urine after 48 hrs. The format is functional.
In data set [5] the test system is Staphylococcus aureus. Nature of the data set: Antimicrobial activity against Staphylococcus aureus Smith diffuse infected in Wistar rat ureteral stent infection model. The class given is functional.
The species named for data set [6] is Rattus norvegicus. The data set is described as follows: Toxicity in Staphylococcus aureus Smith diffuse infected Wistar rat containing 1 ug/ml drug-coated ureteral stent assessed as mortality. The class given is organism-based. As to conditions: in vivo, other.
Data set [7] deals with Rattus norvegicus. The data set is described as follows: Toxicity in Staphylococcus aureus Smith diffuse infected Wistar rat assessed as drug-related adverse effects at 10 mg/kg, ip. More on the design: dose 10 mg/kg, route intraperitoneal. As to conditions: in vivo. The class given is organism-based.
The species named for data set [8] is Rattus norvegicus. Nature of the data set: Toxicity in Staphylococcus aureus Smith diffuse infected Wistar rat containing 1 ug/ml drug-coated ureteral stent assessed as drug-related adverse effects. The format is organism-based. To be noted: in vivo, other.
In data set [9] the test system is Rattus norvegicus. The data set is described as follows: Toxicity in Staphylococcus aureus Smith diffuse infected Wistar rat containing 1 ug/ml drug-coated ureteral stent assessed as mortality in presence of 10 mg/kg, ip teicoplanin. The class given is organism-based. More on the design: dose 10 mg/kg, route intraperitoneal. To be noted: in vivo.
For data set [10], the system named is Rattus norvegicus. The data set is described as follows: Toxicity in Staphylococcus aureus Smith diffuse infected Wistar rat containing 1 ug/ml drug-coated ureteral stent assessed as drug-related adverse effects in presence of 10 mg/kg, ip teicoplanin. More on the design: dose 10 mg/kg, route intraperitoneal. The class given is organism-based. To be noted: in vivo.

Data set [11] deals with Staphylococcus aureus. Nature of the data set: Antimicrobial activity against Staphylococcus aureus Smith diffuse infected in Wistar rat ureteral stent infection model assessed as bacterial count on ureteral stent at 10 mg/kg, ip after 48 hrs. The class given is functional. To be noted: route intraperitoneal.
The subject of data set [12] is Staphylococcus aureus. Nature of the data set: Antimicrobial activity against Staphylococcus aureus Smith diffuse infected in Wistar rat ureteral stent infection model assessed as bacterial count in urine at 10 mg/kg, ip after 48 hrs. As to conditions: route intraperitoneal. The class given is functional.
The subject of data set [13] is Rattus norvegicus. The data set is described as follows: Toxicity in Staphylococcus aureus Smith diffuse infected Wistar rat assessed as mortality at 10 mg/kg, ip. More on the design: dose 10 mg/kg, route intraperitoneal. As to conditions: in vivo. The format is organism-based.

In general, MIC refers to the lowest concentration that inhibits growth of the organism. Low readings indicate inhibition by little substance, high ones a need for much substance. On to H-YSPWTNF-NH2, for which the CFU is 67 ×10³ /ml in the data set with Staphylococcus aureus [1], 4 ×10⁴ /ml with Staphylococcus aureus [2], under 10 mL⁻¹ in the data set on Staphylococcus aureus [3] and under 10 mL⁻¹ in the data set with Staphylococcus aureus [4]. Also, in the data set on Staphylococcus aureus [5], the MIC is 1 mg/L. Further, the Activity entry in the data set listed under Rattus norvegicus [6], in the data set on Rattus norvegicus [7], in the data set listed under Rattus norvegicus [8], in the data set with Rattus norvegicus [9] and in the data set with Rattus norvegicus [10] was “Non-toxic” each time.
Regarding `CC(=O)N[C@@H]1[C@H](Oc2c3cc4cc2Oc2ccc(cc2Cl)[C@@H](O[C@@H]2O[C@@H](CO)[C@@H](O)[C@H](O)[C@@H]2NC(C)=O)[C@@H]2NC(=O)[C@H](NC(=O)[C@@H]4NC(=O)[C@H]4NC(=O)[C@@H](Cc5ccc(c(Cl)c5)O3)NC(=O)[C@H](N)c3ccc(O)c(c3)Oc3cc(O)cc4c3)c3ccc(O)c(c3)-c3c(O[C@H]4O[C@H](CO)[C@@H](O)[C@@H](O)[C@@H]4O)cc(O)cc3[C@@H](C(=O)O)NC2=O)O[C@@H](CO)[C@@H](O)[C@@H]1O`, the CFU was 3.8 ×10³ /ml with Staphylococcus aureus [11] and 2.9 ×10⁴ /ml in the data set on Staphylococcus aureus [12]. Further, the Activity entry with Rattus norvegicus [13], in the data set filed under Rattus norvegicus [6], in the data set with Rattus norvegicus [7], in the data set filed under Rattus norvegicus [8], in the data set on Rattus norvegicus [9] and with Rattus norvegicus [10] was “Non-toxic” throughout.

Source of the values: ChEMBL document CHEMBL1151425, “RNAIII-inhibiting peptide affects biofilm formation in a rat model of staphylococcal ureteral stent infection” (Antimicrob Agents Chemother, 2007).
